Article PMC12650144, “Interactive Role of the DHPR β1a SH3 Domain in Skeletal Muscle Excitation–Contraction Coupling” (Biomolecules, 2025)
Where no end group is shown, it is not given here.

Columns and labels:
[1] = target: T1, DHPR β1a subunit (full-length, β1a-FL) (Mus musculus, UniProt Q8R3Z5); test: Tryptophan fluorescence quenching binding to full-length β1a; conditions: excitation 280 nm, emission 340 nm, full-length β1a titrated with loop/peptide, nonlinear regression, read-out: Binding affinity to β1a subunit (Kd)
T1 construct: full-length β1a (β1a-FL); polyhistidine-tagged ubiquitin (N, cleaved yes); made in house; host or cells: Escherichia coli BL21
Protocol: (§1) The mouse β1a and β2a subunits (NCBI reference sequences—NM_031173 and NM_023116), the β1a-SH3 domain (β1a residues V101-P272), and the α1s II-III loop (NCBI reference sequence—X05921, residues E666-L791) were amplified by PCR. Each PCR product was cloned in-frame downstream of a polyhistidine-tagged ubiquitin sequence in the plasmid pHUE [27]. The plasmids were transferred into Escherichia coli BL21, and expression of fusion protein was induced by addition of 0.1 mM IPTG (isopropyl β-D-1thiogalactoside) to the culture medium. The His-tagged proteins were purified by chromatography on Ni-agarose. Ubiquitin was removed from the N-terminal end of the recombinant proteins by digestion with a His-tagged ubiquitin-dependant protease. The recombinant β-subunit proteins and the II-III loop were further purified by preparative electrophoresis using a Bio-Rad model 491 prep cell. The final samples were dialysed into a buffer containing 50 mM sodium phosphate pH 8 and 300 mM NaCl (buffer A) and stored at −70 °C.
(§2) Equilibrium dissociation constants for β1a and β2a subunit and β1a-SH3 domain binding to the α1s II-III loop and its peptides were determined with a Perkin-Elmer LS 50B6 Spectrofluorimeter. Changes in the intrinsic fluorescence of the tryptophan residues of the β1a subunit or the β1a-SH3 domain was monitored while titrating the α1s II-III loop or its peptides. Excitation was at 280 nm, and fluorescence emission was monitored at 340 nm. Data was corrected for dilution effects and for intrinsic fluorescence of the II-III loop or its peptides and fitted with nonlinear regression using GraphPad Prism software (6.0), as previously described.

[2] = target: T2, β1a-SH3 domain (residues 101–272) (Mus musculus, UniProt Q8R3Z5); test: Tryptophan fluorescence quenching binding to β1a SH3 domain; conditions: excitation 280 nm, emission 340 nm, refolded β1a-SH3, read-out: Binding affinity to β1a–SH3 domain (residues 101–272) (Kd)
T2 construct: The β1a SH3 protein (residues V101-P272) was purified by IMAC; polyhistidine-tagged ubiquitin (N, cleaved yes); made in house; host or cells: Escherichia coli BL21
Protocol: as §1
The β1a SH3 protein (residues V101-P272) was purified by IMAC (immobilized metal affinity chromatography) under denaturing conditions (6M guanidinium HCl) using Ni-NTA resin. The purity of the protein was assessed by SDS page gels (Supplementary Figure S1). The purified protein was then refolded by dialysing against buffer A, and the folded structure was checked by circular dichroism (Supplementary Figure S2). The purified and refolded protein was stored (−70 °C) at concentrations of ~1μM. It was not possible to directly assess the aggregation state of the β1a SH3 protein construct at 1μM as the SEC UV peak absorbance was below detectable levels.
as §2

[3] = test system: DHPRβ1a-null myotubes expressing β1a constructs; test: Depolarization (KCl)-induced Ca2+ release in Fura-2-loaded myotubes; type: cell-based, mouse; conditions: Fura-2-AM-loaded myotubes expressing the construct; sigmoidal dose–response fit
Protocol: All animal procedures were carried out in accordance with the guidelines of Harvard Medical Area Standing Committee on Animals under experimental protocol number 2589, approved on 01 Sept 2014. Primary myoblasts from DHPRβ1a-null mouse skeletal muscles were isolated from the hindlimb of neonatal mice, as described elsewhere. Stably transduced cell lines were then obtained by infection of primary β-null myoblasts with virion particles carrying the β1a genes at a multiplicity of infection (MOI) of 0.5 and then selected with […] Puromycin for 2 weeks, as described previously. Cells expressing mouse Wtβ1a or β1a-loop chimera subunit were then grown and differentiated in 96-well plates, as described previously. […] Fura-2 images were acquired with a 40 objective (Olympus, UApo/340), and fluorescent emission at 510 nm was then captured from regions of interest within each myotube at 33 frames/s using Piper-controlled acquisition software (Stanford Photonics) and is expressed as the ratio of signal collected at alternating 340 nm/380 nm excitation wavelengths. […] Fluo-4 fluorescent images were acquired using a 60 objective, and emission at 510 nm was then collected from regions of interest from individual cells excited at 490 nm and is expressed as arbitrary fluorescent units.

[4] = test system: L-type Ca2+ current (DHPR channel) in β-null myotubes; test: L-type Ca2+ current, whole-cell patch clamp in cultured myotubes; type: cell-based, mouse; conditions: mean ± SE
Protocol: All animal procedures were carried out in accordance with the guidelines of Harvard Medical Area Standing Committee on Animals under experimental protocol number 2589, approved on 01 Sept 2014. Primary myoblasts from DHPRβ1a-null mouse skeletal muscles were isolated from the hindlimb of neonatal mice, as described elsewhere. Stably transduced cell lines were then obtained by infection of primary β-null myoblasts with virion particles carrying the β1a genes at a multiplicity of infection (MOI) of 0.5 and then selected with […] Puromycin for 2 weeks, as described previously. Cells expressing mouse Wtβ1a or β1a-loop chimera subunit were then grown and differentiated in 96-well plates, as described previously. Calcium imaging was performed 5–6 days after differentiation in myotubes loaded with 5μM Fura-2-AM or 2μM Fluo-4 (Molecular Probes) in imaging buffer (125 mM NaCl, 5 mM KCl, 2 mM CaCl2, 1.2 mM MgSO4, 6 mM glucose, and 25 mM HEPES-Tris, pH 7.4). Cell membrane depolarization was performed by 5s of perfusion with 5–7 volumes of imaging buffer containing increasing concentrations of KCl. To preserve osmolarity of the depolarization buffer, the increased K concentration was compensated with an equivalent reduction in total NaCl concentration. Sarcoplasmic reticulum Ca^2+ content of Fura-2-AM-loaded cultured myotubes was estimated from the peak fluorescent amplitude of the Ca^2+ transient induced by 40 mM caffeine stimulation in the presence of 1μM thapsigargin (Tg) and in the absence of extracellular Ca^2+ [34, 35]. Extracellular Ca^2+ entry at rest was estimated from the rate of dye quench by Mn^2+ entry in myotubes loaded with 5μM Fura-2-AM in the presence and in the absence of 10μM KB-R7943 (glycerol, 2-(2-(4-(4-nitrobenzyloxy) phenyl)ethyl)-isothiourea methane sulfonate), as described previously. Cells were then imaged at 360 nm (5 nm) with an intensified 10-bit digital CCD camera (XR-Mega-10, Stanford Photonics, Stanford, CA, USA) using aDG4 multiwavelength light source. Fura-2 images were acquired with a 40 objective (Olympus, UApo/340), and fluorescent emission at 510 nm was then captured from regions of interest within each myotube at 33 frames/s using Piper-controlled acquisition software (Stanford Photonics) and is expressed as the ratio of signal collected at alternating 340 nm/380 nm excitation wavelengths. […] Fluo-4 fluorescent images were acquired using a 60 objective, and emission at 510 nm was then collected from regions of interest from individual cells excited at 490 nm and is expressed as arbitrary fluorescent units.
The macroscopic Ca^2+ current was determined using the same equipment and protocols previously described (PMID: 29212769). […]

[5] = target: α1s C (α1s II-III loop C region peptide, residues 720–765); test: Fluorescence binding of β isoforms and chimeras to α1s C peptide; conditions: β construct titrated with α1s C peptide
Protocol: as §1, with “The recombinant β-subunit proteins and the II-III loop were further purified by preparative electrophoresis using a Bio-Rad model 491 prep cell. The final samples were dialysed into a buffer containing 50 mM sodium phosphate pH 8 and 300 mM NaCl (buffer A) and stored at −70 °C.” left out
as §2

T1 sequence (Q8R3Z5 1-524 isoform Q8R3Z5-4): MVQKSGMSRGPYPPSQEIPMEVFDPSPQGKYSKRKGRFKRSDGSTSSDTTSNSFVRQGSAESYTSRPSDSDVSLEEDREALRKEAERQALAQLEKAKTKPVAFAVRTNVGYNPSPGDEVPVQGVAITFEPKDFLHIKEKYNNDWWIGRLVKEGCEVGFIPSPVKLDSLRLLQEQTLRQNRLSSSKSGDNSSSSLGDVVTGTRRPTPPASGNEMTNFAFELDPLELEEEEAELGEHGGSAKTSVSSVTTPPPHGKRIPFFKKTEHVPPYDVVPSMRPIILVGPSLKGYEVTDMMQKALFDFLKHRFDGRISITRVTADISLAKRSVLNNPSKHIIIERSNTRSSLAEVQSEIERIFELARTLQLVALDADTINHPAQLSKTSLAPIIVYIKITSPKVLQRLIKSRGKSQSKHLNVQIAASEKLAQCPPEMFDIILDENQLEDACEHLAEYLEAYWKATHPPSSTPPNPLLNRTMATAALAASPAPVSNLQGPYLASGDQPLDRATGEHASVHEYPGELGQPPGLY
T2 sequence (Q8R3Z5 101-272 isoform Q8R3Z5-4): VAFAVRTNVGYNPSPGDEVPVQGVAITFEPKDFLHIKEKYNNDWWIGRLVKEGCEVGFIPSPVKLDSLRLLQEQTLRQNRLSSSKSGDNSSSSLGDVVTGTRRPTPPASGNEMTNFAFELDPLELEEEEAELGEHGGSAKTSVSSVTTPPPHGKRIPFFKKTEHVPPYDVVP

Substance	Kd [1]	Kd [2]	other results
KDPYPSPDFPGDD [sP1 A⟶P mutant]	4.5 ± 0.3 µM	2.3 ± 0.2 µM	
β1a: full-length mouse DHPR β1a subunit; recombinant or expressed in β-null myotubes			EC50 [3]: 6680 ± 450 µM; V1/2 ([4]; potential at which G = 1/2 Gmax, n = 22 / 21): 14.7 ± 0.88 mV; Vr ([4]; reversal potential, n = 22 / 21): 84.8 ± 0.35 mV; k ([4]; slope parameter, n = 22 / 21): 6.0 ± 0.17 mV; Gmax ([4]; β-null myotubes expressing the construct, external 10 mM CaCl2, n = 22 (Wt-β1a), n = 21 (β1a-RT loop)): 453 ± 33.0 pS/pF; Kd [5]: 4.9 ± 0.6 µM
β2a: mouse DHPR β2a (cardiac isoform) subunit, recombinant			Kd for binding to α1s C [5]: no measurable binding
EEPEMPVGPRPRPLSEL [α1c C binding peptide 2 (cP2)]	4.6 ± 0.3 µM	3.6 ± 0.3 µM	
KDPYPSADFTGDD [sP1 P⟶T mutant]	22 ± 2 µM	19 ± 2 µM	
KDPYPSADFPGED [sP1 D⟶E mutant]	15 ± 2 µM	17 ± 1 µM	
KDPYPSADTPGDD [sP1 F⟶T mutant]	4.6 ± 0.4 µM	4.6 ± 0.3 µM	
KDPYPSADFPGDD [α1s C binding peptide 1 (sP1)]	3.6 ± 0.2 µM	2.6 ± 0.4 µM	
KSPYPNPETTGEE [α1c C binding peptide 1 (cP1)]	14 ± 2 µM	19 ± 4 µM	

More lines, main results first:

Kd [1]	Kd [2]	Substance	other results
	3.6 ± 0.6 µM	LKVDEFESNVNEVKDPYPSADFPGDDEEDEPEIPVSPRPRPLAELQ [α1s II–III loop C region (α1s C)]	
5.4 ± 0.9 µM	3.8 ± 0.2 µM	DEPEIPVSPRPRPLAEL [α1s C binding peptide 2 (sP2)]	
